Source: patent US20140363845A1, “CHOLESTEROL-BASED MEDIA SUPPLEMENTS FOR CELL CULTURE” (Biogen Idec MA Inc., priority 2011, published 2014)

Key:
[1] = tested on: NS0 cells; assay: shake flask cell growth in medium held in WAVE Bioreactor bag; set-up: species or system murine; settings: based on medium hold study and shake flask growth and viability data
Method: (§1) The rate of cholesterol depletion from the culture medium in single-use disposable bioreactor bags was determined. A medium hold study was performed in which 1.4 L of fresh pre-warmed culture medium containing 2.5 mg/L cholesterol (1 ml GCLC/liter medium) was added into a 2 L WAVE BIOREACTOR™ bag. The bag was then incubated under standard culture conditions, and 200 ml medium aliquots were aseptically removed from the bag at 15 min, 4 h, 7.5 h and 22 h incubation times. The medium aliquots at each time point were analyzed for cholesterol concentration (FIG. 1) and used to inoculate shake flask cultures seeded at 4×10^5 cells/ml. Shake-flask cultures were passaged for three days under standard conditions. A shake-flask control culture (no prior exposure to WAVE Bioreactor™ bag) containing 2.5 mg/L cholesterol (1 ml GCLC per liter medium) was seeded in parallel. Viable cell density and viability were measured every 24 hours (FIG. 2).
A cholesterol-dependent NS0 cell line expressing recombinant antibody was used in the study. The culture medium used was a chemically defined medium formulation. […]
(§2) Viable cell density was determined using a Cedex Automated Cell Culture Analyzer (Roche Innovatis AG). pH and pCO2 were measured off-line using a BioProfile pHOx analyzer (Nova Biomedical). Cholesterol concentration was measured using GC analysis by Invitrogen Medium Analytical Services.

[2] = tested on: NS0 cells; assay: cholesterol dosing in high cell density pseudo-perfusion shake flask culture; type: cell-based, murine; settings: seed density 8×10^6 cells/ml
Method: FIG. 5A and FIG. 5B are graphs of a cholesterol dosing study in high cell density cell culture generated using pseudo-perfusion mode. […] Pseudo-perfusion cultures were established in shake flasks using growth medium supplement with GCLC at the following concentrations: 2.5 mg/L (▪), 7.5 mg/L (▴), 10.0 mg/L (0) to 12.5 mg/L (∘). Full volume medium exchanges were carried out on a daily basis. […] There was full volume exchange of medium in the shake flasks on a daily basis. The initial seed density was 8×10^6 cells/ml, and one volume of fresh growth medium was exchanged daily starting on day 1 post inoculation.

[3] = medium hold study: cholesterol adsorption in disposable WAVE Bioreactor bag; type: physicochemical; settings: medium with 2.5 mg/L cholesterol (1 ml GCLC/liter), after 22 hours of incubation in 2 L WAVE Bioreactor bag
Method: as §1, §2

[4] = tested on: NS0 cells; settings: ethanol dose study
Method: Cells were suspended in fresh medium containing increased amount of GCLC at concentrations of 5 mg/L and 7.5 mg/L and then incubated for 3 days in 2 L bags under standard cell culture conditions.

cholesterol concentration in the medium [3]	SMILES	cholesterol concentration in the medium to be maintained to support cell growth [1]	support of cell growth ([2]; 2.5 mg total cholesterol/L, daily full volume medium exchange)	cholesterol concentration required to support growth ([2]; high cell density pseudo-perfusion culture)	ethanol concentration at which cell growth was not inhibited [4]
below detectable limits	CC(C)CCC[C@@H](C)[C@H]1CC[C@H]2[C@@H]3CC=C4C[C@@H](O)CC[C@]4(C)[C@H]3CC[C@]12C [cholesterol]	above 1.0 mg/L	insufficient to support growth	> 7.5 mg/L	
	CCO [ethanol]				below 2%
